According to patent publication US20230117470A1, “SUBSTITUTED PYRAZOLE COMPOUNDS AS TOLL RECEPTOR INHIBITORS” (BRISTOL-MYERS SQUIBB COMPANY, priority 2019, published 2023):

Key:
Type in all cases: cell-based
human TLR7 = target: T1, human TLR7 (Homo sapiens, UniProt Q9NYK1); assay: TLR7 inhibition reporter assay (HEK-Blue cells, SEAP reporter, gardiquimod stimulation); conditions: HEK-Blue cells overexpressing human TLR7, SEAP reporter, gardiquimod 7.5 μM
T1 construct: host or cells: HEK-Blue cells
T1 sequence (Q9NYK1 27-1049): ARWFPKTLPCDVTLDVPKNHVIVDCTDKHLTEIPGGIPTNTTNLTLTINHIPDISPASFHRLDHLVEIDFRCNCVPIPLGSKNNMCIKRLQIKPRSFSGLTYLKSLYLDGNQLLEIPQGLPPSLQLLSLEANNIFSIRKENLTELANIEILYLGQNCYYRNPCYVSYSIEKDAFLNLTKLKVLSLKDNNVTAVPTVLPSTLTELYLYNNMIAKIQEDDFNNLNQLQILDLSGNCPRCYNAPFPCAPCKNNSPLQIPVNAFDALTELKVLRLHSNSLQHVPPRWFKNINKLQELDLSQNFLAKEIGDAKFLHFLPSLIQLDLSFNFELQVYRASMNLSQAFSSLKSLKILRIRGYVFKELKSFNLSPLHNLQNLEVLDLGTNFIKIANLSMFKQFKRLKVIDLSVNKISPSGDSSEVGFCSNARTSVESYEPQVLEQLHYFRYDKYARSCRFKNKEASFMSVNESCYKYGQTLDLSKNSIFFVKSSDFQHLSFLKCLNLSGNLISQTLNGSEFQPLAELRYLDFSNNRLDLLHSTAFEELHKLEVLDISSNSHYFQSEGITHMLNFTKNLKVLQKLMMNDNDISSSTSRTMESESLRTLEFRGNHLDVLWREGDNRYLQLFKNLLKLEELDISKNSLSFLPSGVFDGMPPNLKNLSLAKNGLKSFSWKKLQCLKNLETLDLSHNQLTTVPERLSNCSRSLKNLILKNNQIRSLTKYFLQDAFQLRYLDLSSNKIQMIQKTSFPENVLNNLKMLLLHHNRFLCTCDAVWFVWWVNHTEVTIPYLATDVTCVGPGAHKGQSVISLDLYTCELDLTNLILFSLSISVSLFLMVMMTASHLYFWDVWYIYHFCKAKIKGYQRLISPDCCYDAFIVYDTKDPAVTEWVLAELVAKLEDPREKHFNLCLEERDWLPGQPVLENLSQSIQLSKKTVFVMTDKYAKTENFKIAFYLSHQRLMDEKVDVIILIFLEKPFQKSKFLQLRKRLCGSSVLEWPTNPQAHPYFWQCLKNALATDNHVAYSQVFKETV
Procedure: (§1) TLR7/8/9 Inhibition Reporter Assays
(§2) HEK-Blue™-cells (Invivogen) overexpressing human TLR7, TLR8 or TLR9 receptors were used for screening inhibitors of these receptors using an inducible SEAP (secreted embryonic alkaline phosphatase) reporter gene under the control of the IFN-β minimal promoter fused to five NF-κB and AP-1-binding sites. Briefly, cells are seeded into Greiner 384 well plates (15000 cells per well for TLR7, 20,000 for TLR8 and 25,000 for TLR9) and then treated with test compounds in DMSO to yield a final dose response concentration range of 0.05 nM-50 μM. After a 30 minute compound pre-treatment at room temperature, the cells are then stimulated with a TLR7 ligand (gardiquimod at a final concentration of 7.5 μM), TLR8 ligand (R848 at a final concentration of 15.9 μM) or TLR9 ligand (ODN2006 at a final concentration of 5 nM) to activate NF-κB and AP-1 which induce the production of SLA After a 22 hour incubation at 37° C., […], SEAP levels are determined with the addition of HEK-Blue™ Detection reagent (Invivogen), a cell culture medium that allows for detection of SLAP, according to manufacturer's specifications. The percent inhibition is determined as the % reduction in the HEK-Blue signal present in wells treated with agonist plus DMSO alone compared to wells treated with a known inhibitor.

human TLR8 = target: T2, human TLR8 (Homo sapiens, UniProt Q9NR97); assay: TLR8 inhibition reporter assay (HEK-Blue cells, SEAP reporter, R848 stimulation); conditions: HEK-Blue cells overexpressing human TLR8, SEAP reporter, R848 15.9 μM
T2 construct: host or cells: HEK-Blue cells
T2 sequence (Q9NR97 27-1041): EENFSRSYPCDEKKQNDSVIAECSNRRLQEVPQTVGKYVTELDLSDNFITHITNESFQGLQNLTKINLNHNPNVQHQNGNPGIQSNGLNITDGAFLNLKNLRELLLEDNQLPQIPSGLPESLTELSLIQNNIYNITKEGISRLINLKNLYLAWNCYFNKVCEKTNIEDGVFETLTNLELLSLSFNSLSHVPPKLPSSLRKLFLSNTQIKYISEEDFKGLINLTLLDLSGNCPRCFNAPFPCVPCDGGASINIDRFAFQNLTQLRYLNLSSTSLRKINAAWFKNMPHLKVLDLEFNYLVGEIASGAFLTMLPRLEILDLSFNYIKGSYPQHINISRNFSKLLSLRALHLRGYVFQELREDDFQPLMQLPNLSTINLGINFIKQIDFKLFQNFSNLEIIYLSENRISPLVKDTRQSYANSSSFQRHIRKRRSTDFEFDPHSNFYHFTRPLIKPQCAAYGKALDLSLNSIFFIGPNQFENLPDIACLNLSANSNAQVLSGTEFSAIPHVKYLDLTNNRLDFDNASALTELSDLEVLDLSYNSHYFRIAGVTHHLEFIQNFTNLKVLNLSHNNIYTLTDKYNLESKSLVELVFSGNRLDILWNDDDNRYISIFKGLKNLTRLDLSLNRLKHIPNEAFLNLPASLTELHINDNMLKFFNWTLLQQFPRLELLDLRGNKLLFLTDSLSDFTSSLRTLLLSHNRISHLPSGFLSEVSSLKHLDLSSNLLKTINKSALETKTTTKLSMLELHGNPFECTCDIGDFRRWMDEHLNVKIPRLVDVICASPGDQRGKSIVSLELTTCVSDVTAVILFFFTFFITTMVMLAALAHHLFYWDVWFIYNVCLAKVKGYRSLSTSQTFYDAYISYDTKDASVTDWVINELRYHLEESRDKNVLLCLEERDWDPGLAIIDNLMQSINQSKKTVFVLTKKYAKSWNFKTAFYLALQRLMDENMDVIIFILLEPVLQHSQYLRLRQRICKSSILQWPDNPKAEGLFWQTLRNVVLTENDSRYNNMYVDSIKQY
Procedure: as §1, §2

human TLR9 = target: T3, human TLR9 (Homo sapiens, UniProt Q9NR96); assay: TLR9 inhibition reporter assay (HEK-Blue cells, SEAP reporter, ODN2006 stimulation); conditions: HEK-Blue cells overexpressing human TLR9, SEAP reporter, ODN2006 5 nM
T3 construct: host or cells: HEK-Blue cells
T3 sequence (Q9NR96 26-1032): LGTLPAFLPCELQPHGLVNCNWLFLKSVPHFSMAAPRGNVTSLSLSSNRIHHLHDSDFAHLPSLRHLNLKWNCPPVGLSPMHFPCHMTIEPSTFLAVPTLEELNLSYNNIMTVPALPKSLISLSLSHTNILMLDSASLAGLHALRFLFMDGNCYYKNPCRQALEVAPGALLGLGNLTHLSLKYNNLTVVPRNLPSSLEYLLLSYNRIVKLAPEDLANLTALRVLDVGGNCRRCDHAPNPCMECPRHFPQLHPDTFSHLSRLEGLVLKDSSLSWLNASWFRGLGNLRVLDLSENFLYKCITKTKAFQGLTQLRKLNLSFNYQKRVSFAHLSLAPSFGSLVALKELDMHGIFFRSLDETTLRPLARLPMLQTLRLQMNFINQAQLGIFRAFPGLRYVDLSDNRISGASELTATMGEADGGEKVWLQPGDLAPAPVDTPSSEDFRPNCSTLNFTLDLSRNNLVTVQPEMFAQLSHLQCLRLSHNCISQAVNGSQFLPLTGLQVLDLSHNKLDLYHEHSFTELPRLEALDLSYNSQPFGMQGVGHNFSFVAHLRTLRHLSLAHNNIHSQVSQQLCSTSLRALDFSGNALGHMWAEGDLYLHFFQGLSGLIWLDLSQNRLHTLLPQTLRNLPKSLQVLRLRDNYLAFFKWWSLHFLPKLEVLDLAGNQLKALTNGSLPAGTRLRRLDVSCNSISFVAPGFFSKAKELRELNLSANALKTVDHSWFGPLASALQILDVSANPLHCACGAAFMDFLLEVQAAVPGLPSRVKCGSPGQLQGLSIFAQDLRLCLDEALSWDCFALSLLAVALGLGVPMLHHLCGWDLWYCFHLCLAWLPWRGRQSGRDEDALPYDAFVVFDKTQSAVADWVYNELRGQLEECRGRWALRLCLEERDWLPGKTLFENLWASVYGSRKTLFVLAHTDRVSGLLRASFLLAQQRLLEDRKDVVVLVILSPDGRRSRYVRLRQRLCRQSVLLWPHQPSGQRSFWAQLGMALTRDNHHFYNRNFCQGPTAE
Procedure: as §1, §2

IC50 (human TLR7) [nM] | IC50 (human TLR8) [nM] | IC50 (human TLR9) [nM] | Structure (SMILES)
8.89 | 9.41 | 6790 | Cc1cc(-c2[nH]nc(C(=O)C(=O)NC3CCN(C(C)C)CC3)c2C(C)C)cn2ncnc12 [Example 183, 2-(4-isopropyl-5-(8-methyl-[1,2,4]triazolo[1,5-a]pyridin-6-yl)-1H-pyrazol-3-yl)-N-(1-isopropylpiperidin-4-yl)-2-oxoacetamide]
6.67 | 4.19 | 14400 | Cc1cc(-c2[nH]nc(-c3ccc(C4CCN(C)CC4)cc3)c2C(C)C)cn2ncnc12 [Example 309]
442 | 413 | 7210 | COc1cc(-c2[nH]nc(C(=O)NCC(C)(C)N3CCOCC3)c2C(C)C)cn2ncnc12 [Example 26]
3.59 | 16.9 | 5710 | Cc1cc(-c2[nH]nc(C(=O)NC3CCCNC3)c2C(C)C)cn2ncnc12 (stereo not drawn) [Example 66]
0.72 | 1.02 | 6520 | Cc1cc(-c2[nH]nc(-c3ncc4c(n3)CNC4)c2C(C)C)cn2ncnc12 [Example 216]
25.6 | 10.3 | 447 | Cc1cc(-c2[nH]nc(C(=O)N(C)C3CCN(C)C3)c2C(C)C)cn2ncnc12 (stereo not drawn) [Example 25]
1.59 | 20.6 | 9400 | Cc1cc(-c2[nH]nc(C(=O)N[C@H]3CCCN(C(C)C)C3)c2C(C)C)cn2ncnc12 [Example 163]
2.27 | 0.64 | 12600 | Cc1cc(-c2[nH]nc(C3CCN(C)CC3)c2C(C)C)cn2ncnc12 [Example 206, 6-(4-isopropyl-3-(1-methylpiperidin-4-yl)-1H-pyrazol-5-yl)-8-methyl-[1,2,4]triazolo[1,5-a]pyridine]
25.6 | 14.6 | > 50000 | Cc1cc(-c2[nH]nc(C3CCC(N4CCN(C)CC4)CC3)c2C(C)C)cn2ncnc12 (single isomer, unassigned) [Example 286]
9.44 | 14.2 | > 50000 | Cc1cc(-c2[nH]nc(C3CCC(N(C)C(=O)C4CN(C)C4)CC3)c2C(C)C)cn2ncnc12 (single isomer, unassigned) [Example 302]
8.56 | 1.09 | 22100 | Cc1cc(-c2[nH]nc(C3CCC(N4CCOCC4)CC3)c2C(C)C)cn2ncnc12 (single isomer, unassigned) [Example 290]
1.26 | 0.73 | 4960 | Cc1cc(-c2[nH]nc(C3CCC(NCC4(C)COC4)CC3)c2C(C)C)cn2ncnc12 (single isomer, unassigned) [Example 280]
77.5 | 215 | 37700 | Cc1cc(-c2[nH]nc(-c3ccc(N4CC(N(C)C)C4)cc3)c2C(C)C)cn2ncnc12 [Example 405, 1-(4-(4-isopropyl-5-(8-methyl-[1,2,4]triazolo[1,5-a]pyridin-6-yl)-1H-pyrazol-3-yl)phenyl)-N,N-dimethylazetidin-3-amine]
6.34 | 1.19 | 19800 | CCN1CCc2nc(-c3n[nH]c(-c4cc(C)c5ncnn5c4)c3C(C)C)ncc2C1 [Example 249]
47.1 | 16.1 | > 50000 | Cc1cc(-c2[nH]nc(-c3cccc(NC(C)C)c3)c2C(C)C)cn2ncnc12 [Example 242]
8.2 | 19.2 | 35600 | Cc1cc(-c2[nH]nc(C3CCC(N(C)C(=O)C4CN(C(C)C)C4)CC3)c2C(C)C)cn2ncnc12 (single isomer, unassigned) [Example 304]
1.74 | 0.76 | 13500 | CCc1c(C(=O)NC2CCN(C(C)C)CC2)n[nH]c1-c1cc(C)c2ncnn2c1 [compound 182]
6.33 | 238 | > 50000 | Cc1cc(-c2[nH]nc(C(=O)NC3CCN(CCN(C)C)CC3)c2C(C)C)cn2ncnc12 [Example 83]
2.56 | 3.94 | 5490 | Cc1cc(-c2[nH]nc(-c3cncc(N)c3)c2C(C)C)cn2ncnc12 [Example 225]
2.77 | 0.79 | 4350 | CC(C)c1c(C(=O)NC2CCN(C(C)C)CC2)n[nH]c1-c1ccnc2[nH]ncc12 [Example 35]
2.9 | 4.22 | 18000 | Cc1cc(-c2[nH]nc(C(=O)N[C@@H]3CCCNC3)c2C(C)C)cn2ncnc12 [Example 52]
